The text below walks through data of patent US20230092890A1, “1, 3, 4-Oxadiazole derivative compounds as histone deacetylase 6 inhibitor, and the pharmaceutical composition comprising the same” (Chong Kun Dang Pharmaceutical Corp., priority 2019, published 2023).

One assay addresses T1, HDAC6 human recombinant (Homo sapiens, UniProt Q9UBN7).
T1 construct: purchased Calbiochem 382180
T1 sequence (Q9UBN7 1-1215): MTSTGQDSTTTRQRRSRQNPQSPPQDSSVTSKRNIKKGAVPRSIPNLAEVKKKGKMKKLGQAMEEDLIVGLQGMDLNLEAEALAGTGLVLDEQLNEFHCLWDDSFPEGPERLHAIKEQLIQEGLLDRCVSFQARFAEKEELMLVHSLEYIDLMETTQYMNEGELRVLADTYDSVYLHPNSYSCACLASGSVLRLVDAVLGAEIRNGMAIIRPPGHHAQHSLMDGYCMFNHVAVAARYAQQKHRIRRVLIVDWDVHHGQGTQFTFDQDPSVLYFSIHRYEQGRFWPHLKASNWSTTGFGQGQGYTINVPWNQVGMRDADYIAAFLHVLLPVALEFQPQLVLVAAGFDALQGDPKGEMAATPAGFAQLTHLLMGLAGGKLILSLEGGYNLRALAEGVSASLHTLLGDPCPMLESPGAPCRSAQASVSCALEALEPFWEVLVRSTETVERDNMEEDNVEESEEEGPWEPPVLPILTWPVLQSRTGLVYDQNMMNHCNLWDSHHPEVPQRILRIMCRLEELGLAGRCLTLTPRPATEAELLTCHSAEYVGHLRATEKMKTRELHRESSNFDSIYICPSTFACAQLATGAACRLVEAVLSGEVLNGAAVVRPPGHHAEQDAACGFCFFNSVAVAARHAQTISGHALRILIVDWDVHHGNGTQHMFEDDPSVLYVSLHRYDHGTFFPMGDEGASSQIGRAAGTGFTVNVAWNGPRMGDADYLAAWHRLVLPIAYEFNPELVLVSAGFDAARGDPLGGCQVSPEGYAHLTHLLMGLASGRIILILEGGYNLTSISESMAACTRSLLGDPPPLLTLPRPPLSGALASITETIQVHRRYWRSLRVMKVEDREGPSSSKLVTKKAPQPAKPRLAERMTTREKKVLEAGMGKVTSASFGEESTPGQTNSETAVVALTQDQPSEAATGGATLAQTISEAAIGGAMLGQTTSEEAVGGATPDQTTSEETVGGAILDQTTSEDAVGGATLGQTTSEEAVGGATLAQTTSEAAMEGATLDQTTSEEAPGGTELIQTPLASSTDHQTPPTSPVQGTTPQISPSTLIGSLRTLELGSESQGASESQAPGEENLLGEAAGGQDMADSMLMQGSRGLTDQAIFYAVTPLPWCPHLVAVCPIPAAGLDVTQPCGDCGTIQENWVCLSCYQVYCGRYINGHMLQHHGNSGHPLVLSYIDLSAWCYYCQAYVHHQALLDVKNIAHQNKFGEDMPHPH
Put plainly: HDAC enzyme activity inhibition (in vitro), HDAC6 assay. Type of assay: biochemical. The conditions noted are these: samples at 0.1, 1, 10, 100 and 1000 nM; 37° C. 60 minutes; fluorescence Ex 390, Em 460; read-out: HDAC6 IC50. The method in brief: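 Fluorescence (Ex 390, Em 460) read after a 37° C, 60 min enzyme reaction and a further 30 min developer step at 37° C. Uses recombinant human HDAC6; HDAC1 arm dosed at 100, 1000, 10000 nM.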

For a further assay, the target named is T2, HDAC1 (Homo sapiens, UniProt Q13547).
T2 construct: purchased Enzolifesciences BML-AK511
T2 sequence (Q13547 whole entry): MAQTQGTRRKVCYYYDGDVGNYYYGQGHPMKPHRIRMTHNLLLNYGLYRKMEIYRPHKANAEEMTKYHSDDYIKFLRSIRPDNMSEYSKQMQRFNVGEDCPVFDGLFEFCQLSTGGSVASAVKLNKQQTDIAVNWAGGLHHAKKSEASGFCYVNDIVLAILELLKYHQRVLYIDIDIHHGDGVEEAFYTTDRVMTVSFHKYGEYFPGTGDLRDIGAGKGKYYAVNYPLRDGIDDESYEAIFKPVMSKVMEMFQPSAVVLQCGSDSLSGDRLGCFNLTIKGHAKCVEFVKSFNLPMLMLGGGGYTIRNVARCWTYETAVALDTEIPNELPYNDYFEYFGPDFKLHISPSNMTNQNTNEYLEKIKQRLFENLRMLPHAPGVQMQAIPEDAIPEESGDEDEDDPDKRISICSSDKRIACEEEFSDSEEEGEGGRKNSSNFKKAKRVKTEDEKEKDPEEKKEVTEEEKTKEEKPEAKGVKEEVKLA
Put plainly: HDAC enzyme activity inhibition (in vitro), HDAC1 Fluorimetric Drug Discovery Assay Kit. Type of assay: biochemical. The conditions noted are these: samples at 100, 1000 and 10000 nM; 37° C. 60 minutes; fluorescence Ex 390, Em 460; read-out: HDAC1 IC50. An outline of the steps: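 Fluorimetric read-out (Ex 390, Em 460) after a 60 min 37° C enzyme reaction and 30 min 37° C developer step. Tested levels: 0.1-1000 nM (0.1, 1, 10, 100, 1000) on recombinant human HDAC6; 100, 1000 and 10000 nM on HDAC1 kit enzyme.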

Where only a bound is given, the exact number is not on record here.

As to `CN1CCC(n2c(=O)n(Cc3ccc(-c4nnc(C(F)F)o4)cc3F)c3cc(F)c(-c4ccccc4F)cc32)CC1` [Compound 116, 1-(4-(5-(difluoromethyl)-1,3,4-oxadiazole-2-yl)-2-fluorobenzyl)-6-fluoro-5-(2-fluorophenyl)-3-(1-methylpiperidine-4-yl)-1,3-dihydro-2H-benzo[d]imidazole-2-one], the results for the IC50 at HDAC6 human recombinant and on HDAC1 were 0.084 µM and above 10 µM, respectively.

With `CN1CCC(n2c(=O)n(Cc3ccc(-c4nnc(C(F)F)o4)cc3F)c3cc(F)c(-c4cccnc4)cc32)CC1` [Compound 117, 1-(4-(5-(difluoromethyl)-1,3,4-oxadiazole-2-yl)-2-fluorobenzyl)-6-fluoro-3-(1-methylpiperidine-4-yl)-5-(pyridine-3-yl)-1,3-dihydro-2H-benzo[d]imidazole-2-one], the IC50 is 0.024 µM on HDAC6 human recombinant and above 10 µM at HDAC1.

For the compound `CN1CCC(n2c(=O)n(Cc3ccc(-c4nnc(C(F)F)o4)cc3F)c3cc(F)c(-c4ccncc4)cc32)CC1` [Compound 118, 1-(4-(5-(difluoromethyl)-1,3,4-oxadiazole-2-yl)-2-fluorobenzyl)-6-fluoro-3-(1-methylpiperidine-4-yl)-5-(pyridine-4-yl)-1,3-dihydro-2H-benzo[d]imidazole-2-one], the figures for the IC50 at HDAC6 human recombinant and at HDAC1 were 0.042 µM and above 10 µM, respectively.

For `CN1CCC(n2c(=O)n(Cc3ccc(-c4nnc(C(F)F)o4)cc3F)c3cc(Br)ccc32)CC1` [Compound 119, 5-bromo-3-(4-(5-(difluoromethyl)-1,3,4-oxadiazole-2-yl)-2-fluorobenzyl)-1-(1-methylpiperidine-4-yl)-1,3-dihydro-2H-benzo[d]imidazole-2-one], the IC50 is 0.08 µM on HDAC6 human recombinant and above 10 µM on HDAC1.

As to `CN1CCC(n2c(=O)n(Cc3ccc(-c4nnc(C(F)F)o4)cc3F)c3cc(-c4cccc(F)c4)ccc32)CC1` [Compound 120, 3-(4-(5-(difluoromethyl)-1,3,4-oxadiazole-2-yl)-2-fluorobenzyl)-5-(3-fluorophenyl)-1-(1-methylpiperidine-4-yl)-1,3-dihydro-2H-benzo[d]imidazole-2-one], the IC50 was 1.31 µM on HDAC6 human recombinant and above 10 µM on HDAC1.

On to `CN1CCC(n2c(=O)n(Cc3ccc(-c4nnc(C(F)F)o4)cc3F)c3cc(-c4cc(F)ccc4F)ccc32)CC1` [Compound 121, 3-(4-(5-(difluoromethyl)-1,3,4-oxadiazole-2-yl)-2-fluorobenzyl)-5-(2,5-difluorophenyl)-1-(1-methylpiperidine-4-yl)-1,3-dihydro-2H-benzo[d]imidazole-2-one], for which the IC50 at HDAC6 human recombinant was 3.15 µM; on HDAC1, above 10 µM.

Regarding `CN1CCC(n2c(=O)n(Cc3ccc(-c4nnc(C(F)F)o4)cc3F)c3cc(-c4ccc(C(F)(F)F)cc4)ccc32)CC1` [Compound 122, 3-(4-(5-(difluoromethyl)-1,3,4-oxadiazole-2-yl)-2-fluorobenzyl)-1-(1-methylpiperidine-4-yl)-5-(4-(trifluoromethyl)phenyl)-1,3-dihydro-2H-benzo[d]imidazole-2-one], the IC50 on HDAC6 human recombinant was above 5 µM; at HDAC1, above 10 µM.

Consider `Cc1ccc(-c2ccc3c(c2)n(Cc2ccc(-c4nnc(C(F)F)o4)cc2F)c(=O)n3C2CCN(C)CC2)o1` [Compound 124, 3-(4-(5-(difluoromethyl)-1,3,4-oxadiazole-2-yl)-2-fluorobenzyl)-5-(5-methylfuran-2-yl)-1-(1-methylpiperidine-4-yl)-1,3-dihydro-2H-benzo[d]imidazole-2-one], for which the values for the IC50 on HDAC6 human recombinant and at HDAC1 were 0.95 µM and above 10 µM, respectively.

Take `CN1CCC(n2c(=O)n(Cc3ccc(-c4nnc(C(F)F)o4)cc3F)c3cc(-c4cccnc4)ccc32)CC1` [Compound 125, 3-(4-(5-(difluoromethyl)-1,3,4-oxadiazole-2-yl)-2-fluorobenzyl)-1-(1-methylpiperidine-4-yl)-5-(pyridine-3-yl)-1,3-dihydro-2H-benzo[d]imidazole-2-one]: the IC50 at HDAC6 human recombinant is 0.602 µM; at HDAC1 it was above 10 µM.

`CN1CCC(n2c(=O)n(Cc3ccc(-c4nnc(C(F)F)o4)cc3)c3cc(Br)ccc32)CC1` [Compound 126, 5-bromo-3-(4-(5-(difluoromethyl)-1,3,4-oxadiazole-2-yl)benzyl)-1-(1-methylpiperidine-4-yl)-1,3-dihydro-2H-benzo[d]imidazole-2-one]: the IC50 was 0.029 µM at HDAC6 human recombinant and above 10 µM on HDAC1.

Take `CN1CCC(n2c(=O)n(Cc3ccc(-c4nnc(C(F)F)o4)cc3)c3cc(-c4cc(F)ccc4F)ccc32)CC1` [Compound 128]: the values for the IC50 at HDAC6 human recombinant and on HDAC1 were 0.798 µM and above 10 µM, respectively.

Take `CN1CCC(n2c(=O)n(Cc3ccc(-c4nnc(C(F)F)o4)cc3)c3cc(-c4ccc(C(F)(F)F)cc4)ccc32)CC1` [Compound 129]: the IC50 on HDAC6 human recombinant is above 3 µM; at HDAC1, above 10 µM.

With `Cc1ccc(-c2ccc3c(c2)n(Cc2ccc(-c4nnc(C(F)F)o4)cc2)c(=O)n3C2CCN(C)CC2)o1` [Compound 130], the IC50 was 0.288 µM at HDAC6 human recombinant and above 10 µM on HDAC1.

Regarding `Cc1noc(C)c1-c1ccc2c(c1)n(Cc1ccc(-c3nnc(C(F)F)o3)cc1)c(=O)n2C1CCN(C)CC1` [Compound 131, 3-(4-(5-(difluoromethyl)-1,3,4-oxadiazole-2-yl)benzyl)-5-(3,5-dimethylisooxazole-4-yl)-1-(1-methylpiperidine-4-yl)-1,3-dihydro-2H-benzo[d]imidazole-2-one], the IC50 at HDAC6 human recombinant is 0.606 µM; on HDAC1, above 10 µM.

Turning to `CN1CCC(n2c(=O)n(Cc3ccc(-c4nnc(C(F)F)o4)cc3)c3cc(-c4cccnc4)ccc32)CC1` [Compound 132, 3-(4-(5-(difluoromethyl)-1,3,4-oxadiazole-2-yl)benzyl)-1-(1-methylpiperidine-4-yl)-5-(pyridine-3-yl)-1,3-dihydro-2H-benzo[d]imidazole-2-one], the IC50 at HDAC6 human recombinant is 0.281 µM; on HDAC1, above 10 µM.

`CN1CCC(n2c(=O)n(Cc3ccc(-c4nnc(C(F)F)o4)cn3)c3ccc(-c4cccc(F)c4)cc32)CC1` [Compound 133, 1-((5-(5-(difluoromethyl)-1,3,4-oxadiazole-2-yl)pyridine-2-yl)methyl)-5-(3-fluorophenyl)-3-(1-methylpiperidine-4-yl)-1,3-dihydro-2H-benzo[d]imidazole-2-one]: the concentration for half-maximal inhibition (IC50) on HDAC6 human recombinant was 0.02 µM; on HDAC1, above 10 µM.

On to `CN1CCC(n2c(=O)n(Cc3ccc(-c4nnc(C(F)F)o4)cn3)c3ccc(-c4ccccc4F)cc32)CC1` [Compound 134, 1-((5-(5-(difluoromethyl)-1,3,4-oxadiazole-2-yl)pyridine-2-yl)methyl)-5-(2-fluorophenyl)-3-(1-methylpiperidine-4-yl)-1,3-dihydro-2H-benzo[d]imidazole-2-one], for which the IC50 at HDAC6 human recombinant is 0.02 µM; at HDAC1, above 10 µM.

Regarding `CN1CCC(n2c(=O)n(Cc3ccc(-c4nnc(C(F)F)o4)cn3)c3ccc(-c4ccncc4)cc32)CC1` [Compound 135, 1-((5-(5-(difluoromethyl)-1,3,4-oxadiazole-2-yl)pyridine-2-yl)methyl)-3-(1-methylpiperidine-4-yl)-5-(pyridine-4-yl)-1,3-dihydro-2H-benzo[d]imidazole-2-one], the IC50 was 0.019 µM at HDAC6 human recombinant and above 10 µM at HDAC1.

On to `CN1CCC(n2c(=O)n(Cc3ccc(-c4nnc(C(F)F)o4)cn3)c3ccc(-c4cccnc4)cc32)CC1` [Compound 136, 1-((5-(5-(difluoromethyl)-1,3,4-oxadiazole-2-yl)pyridine-2-yl)methyl)-3-(1-methylpiperidine-4-yl)-5-(pyridine-3-yl)-1,3-dihydro-2H-benzo[d]imidazole-2-one], for which the IC50 at HDAC6 human recombinant was 0.012 µM; on HDAC1, above 10 µM.
